The record followed here is BindingDB's records for doi:10.1016/s0960-894x(01)00378-x (The R. W. Johnson Pharmaceutical Research Institute, 2001).

Test [1] is described as follows: In vitro inhibition of human platelet aggregation induced by SFLLRN-NH2 (at a concentration of 2 uM).
Test [2] is described as follows: In vitro inhibition of human platelet aggregation induced by alpha-thrombin (at a concentration of 0.15 nM).

For orientation: IC50 means the concentration at which inhibition is half-maximal. Low readings indicate greater potency in that assay, high ones weaker potency in that assay.

The molecule `COc1ccc(C[C@H](NC(=O)Nc2ccc3c(CN4CCC4)cn(Cc4ccc(F)cc4)c3c2)C(=O)N[C@@H](CCCNC(=N)N)C(=O)NCc2ccccc2)cc1` [(S)-2-[(S)-2-{3-[3-Azetidin-1-ylmethyl-1-(4-fluoro-benzyl)-1H-indol-6-yl]-ureido}-3-(4-methoxy-phenyl)-propionylamino]-5-guanidino-pentanoic acid benzylamide] yielded a concentration for half-maximal inhibition (IC50) in test [1] of 400 nM. `NC(=O)NCCCC(NC(=O)[C@H](Cc1ccc(F)c(F)c1)NC(=O)Nc1ccc2c(CN3CCCC3)cn(Cc3c(Cl)cccc3Cl)c2c1)C(=O)NCc1ccccc1` (stereo partly drawn) [2-[(S)-2-{3-[1-(2,6-Dichloro-benzyl)-3-pyrrolidin-1-ylmethyl-1H-indol-6-yl]-ureido}-3-(3,4-difluoro-phenyl)-propionylamino]-5-ureido-pentanoic acid benzylamide] showed an IC50 in test [1] of 300 nM. As to `CSCCC(NC(=O)[C@H](Cc1ccc(F)c(F)c1)NC(=O)Nc1ccc2c(CN3CCCC3)cn(Cc3c(Cl)cccc3Cl)c2c1)C(=O)NCc1ccccc1` (stereo partly drawn) [N-Benzyl-2-[(S)-2-{3-[1-(2,6-dichloro-benzyl)-3-pyrrolidin-1-ylmethyl-1H-indol-6-yl]-ureido}-3-(3,4-difluoro-phenyl)-propionylamino]-4-methylsulfanyl-butyramide], the concentration for half-maximal inhibition (IC50) in test [1] amounted to 400 nM.

`COc1ccc(C[C@H](NC(=O)Nc2ccc3c(CN4CCCC4)cn(Cc4ccc(F)cc4)c3c2)C(=O)N[C@@H](CCCNC(=N)N)C(=O)NCCCc2ccccc2)cc1` [(S)-2-[(S)-2-{3-[1-(4-Fluoro-benzyl)-3-pyrrolidin-1-ylmethyl-1H-indol-6-yl]-ureido}-3-(4-methoxy-phenyl)-propionylamino]-5-guanidino-pentanoic acid (3-phenyl-propyl)-amide]: the values for the half-maximal inhibitory concentration (IC50) in test [1] and in test [2] were 600 nM and 8500 nM, respectively. `COc1ccc(C[C@H](NC(=O)Nc2ccc3c(CN4CCCCC4)cn(Cc4cccc(C)c4)c3c2)C(=O)N[C@@H](CCCNC(=N)N)C(=O)NCC2CCCCC2)cc1` [(S)-5-Guanidino-2-((S)-3-(4-methoxy-phenyl)-2-{3-[1-(3-methyl-benzyl)-3-piperidin-1-ylmethyl-1H-indol-6-yl]-ureido}-propionylamino)-pentanoic acid cyclohexylmethyl-amide]: the IC50 in test [1] came to 900 nM; in test [2], 11700 nM.

On to `Cc1ccccc1Cn1cc(CN2CCCC2)c2ccc(NC(=O)N[C@@H](Cc3ccc(C#N)cc3)C(=O)N[C@@H](CCCNC(=N)N)C(=O)NCc3ccccc3)cc21` [(S)-2-((S)-3-(4-Cyano-phenyl)-2-{3-[1-(2-methyl-benzyl)-3-pyrrolidin-1-ylmethyl-1H-indol-6-yl]-ureido}-propionylamino)-5-guanidino-pentanoic acid benzylamide], for which the IC50 was determined as 600 nM in test [1] and 620 nM in test [2]. With `CCN(CC)Cc1cn(Cc2cccc(C)c2)c2cc(NC(=O)N[C@@H](Cc3ccc(OC)cc3)C(=O)N[C@@H](CCCNC(=N)N)C(=O)NCCCc3ccccc3)ccc12` [(S)-2-[(S)-2-{3-[3-Diethylaminomethyl-1-(3-methyl-benzyl)-1H-indol-6-yl]-ureido}-3-(4-methoxy-phenyl)-propionylamino]-5-guanidino-pentanoic acid (3-phenyl-propyl)-amide], the IC50 in test [1] worked out at 210 nM; in test [2], 1300 nM. In turn, `N#Cc1ccc(C[C@H](NC(=O)Nc2ccc3c(CN4CCCC4)cn(Cc4c(Cl)cccc4Cl)c3c2)C(=O)N[C@@H](CCCNC(=N)N)C(=O)NCc2ccccc2)cc1` [(S)-2-((S)-3-(4-Cyano-phenyl)-2-{3-[1-(2,6-dichloro-benzyl)-3-pyrrolidin-1-ylmethyl-1H-indol-6-yl]-ureido}-propionylamino)-5-guanidino-pentanoic acid benzylamide] returned an IC50 in test [1] of 70 nM. Turning to `COc1ccc(C[C@H](NC(=O)Nc2ccc3c(CN4CCCC4)cn(Cc4ccccc4C)c3c2)C(=O)N[C@@H](CCCNC(=N)N)C(=O)NCCCc2ccccc2)cc1` [(S)-5-Guanidino-2-((S)-3-(4-methoxy-phenyl)-2-{3-[1-(2-methyl-benzyl)-3-pyrrolidin-1-ylmethyl-1H-indol-6-yl]-ureido}-propionylamino)-pentanoic acid (3-phenyl-propyl)-amide], the IC50 in test [1] is 200 nM. `NCCC(NC(=O)[C@H](Cc1ccc(F)c(F)c1)NC(=O)Nc1ccc2c(CN3CCCC3)cn(Cc3c(Cl)cccc3Cl)c2c1)C(=O)NCc1ccccc1` (stereo partly drawn) [4-Amino-N-benzyl-2-[(S)-2-{3-[1-(2,6-dichloro-benzyl)-3-pyrrolidin-1-ylmethyl-1H-indol-6-yl]-ureido}-3-(3,4-difluoro-phenyl)-propionylamino]-butyramide]: the IC50 in test [1] turned out to be 160 nM; in test [2], 340 nM. Consider `COc1ccc(C[C@H](NC(=O)Nc2ccc3c(CN4CCCC4)cn(Cc4ccc(OC(F)(F)F)cc4)c3c2)C(=O)N[C@@H](CCCNC(=N)N)C(=O)NCC2CCCCC2)cc1` [(S)-5-Guanidino-2-((S)-3-(4-methoxy-phenyl)-2-{3-[3-pyrrolidin-1-ylmethyl-1-(4-trifluoromethoxy-benzyl)-1H-indol-6-yl]-ureido}-propionylamino)-pentanoic acid cyclohexylmethyl-amide], for which, in test [1], the IC50 came to 4800 nM. Turning to `COc1ccc(C[C@H](NC(=O)Nc2ccc3c(CN4CCCC4)cn(Cc4ccccc4Cl)c3c2)C(=O)N[C@@H](CCCNC(=N)N)C(=O)NCCCc2ccccc2)cc1` [(S)-2-[(S)-2-{3-[1-(2-Chloro-benzyl)-3-pyrrolidin-1-ylmethyl-1H-indol-6-yl]-ureido}-3-(4-methoxy-phenyl)-propionylamino]-5-guanidino-pentanoic acid (3-phenyl-propyl)-amide], the IC50 in test [1] stood at 140 nM; in test [2], 2600 nM. `COc1ccc(C[C@H](NC(=O)Nc2ccc3c(CN4CCCC4)cn(Cc4ccc(F)cc4)c3c2)C(=O)N[C@@H](CCCNC(=N)N)C(=O)NCC2CCCCC2)cc1` [(S)-2-[(S)-2-{3-[1-(4-Fluoro-benzyl)-3-pyrrolidin-1-ylmethyl-1H-indol-6-yl]-ureido}-3-(4-methoxy-phenyl)-propionylamino]-5-guanidino-pentanoic acid cyclohexylmethyl-amide] came in with an IC50 in test [2] of 4400 nM. On to `COc1ccc(C[C@H](NC(=O)Nc2ccc3c(CN4CCCCC4)cn(Cc4ccc(F)cc4)c3c2)C(=O)N[C@@H](CCCNC(=N)N)C(=O)NCC2CCCCC2)cc1` [(S)-2-[(S)-2-{3-[1-(4-Fluoro-benzyl)-3-piperidin-1-ylmethyl-1H-indol-6-yl]-ureido}-3-(4-methoxy-phenyl)-propionylamino]-5-guanidino-pentanoic acid cyclohexylmethyl-amide], for which the IC50 in test [1] stood at 1000 nM. Molecule `COc1ccc(C[C@H](NC(=O)Nc2ccc3c(CN4CCCCC4)cn(Cc4ccc(OC(F)(F)F)cc4)c3c2)C(=O)N[C@@H](CCCNC(=N)N)C(=O)NCC2CCCCC2)cc1` [(S)-5-Guanidino-2-((S)-3-(4-methoxy-phenyl)-2-{3-[3-piperidin-1-ylmethyl-1-(4-trifluoromethoxy-benzyl)-1H-indol-6-yl]-ureido}-propionylamino)-pentanoic acid cyclohexylmethyl-amide] had an IC50 in test [2] of 36500 nM. In turn, `NCC(NC(=O)[C@H](Cc1ccc(F)c(F)c1)NC(=O)Nc1ccc2c(CN3CCCC3)cn(Cc3c(Cl)cccc3Cl)c2c1)C(=O)NCc1ccccc1` (stereo partly drawn) [(S)-N-(2-Amino-1-benzylcarbamoyl-ethyl)-2-{3-[1-(2,6-dichloro-benzyl)-3-pyrrolidin-1-ylmethyl-1H-indol-6-yl]-ureido}-3-(3,4-difluoro-phenyl)-propionamide] displayed a 50% inhibitory concentration (IC50) in test [1] of 500 nM. The same measure, in the same setting: under `NC(=O)CCC(NC(=O)[C@H](Cc1ccc(F)c(F)c1)NC(=O)Nc1ccc2c(CN3CCCC3)cn(Cc3c(Cl)cccc3Cl)c2c1)C(=O)NCc1ccccc1` (stereo partly drawn) [2-[(S)-2-{3-[1-(2,6-Dichloro-benzyl)-3-pyrrolidin-1-ylmethyl-1H-indol-6-yl]-ureido}-3-(3,4-difluoro-phenyl)-propionylamino]-pentanedioic acid 5-amide 1-benzylamide] stands 2000 nM. As to `COc1ccc(C[C@H](NC(=O)Nc2ccc3c(CN4CCCC4)cn(Cc4ccc(F)cc4)c3c2)C(=O)N[C@@H](CCCNC(=N)N)C(=O)NCc2ccccc2)cc1` [2-[2-{3-[1-(4-Fluoro-benzyl)-3-pyrrolidin-1-ylmethyl-1H-indol-6-yl]-ureido}-3-(4-methoxy-phenyl)-propionylamino]-5-guanidino-pentanoic acid benzylamide], the IC50 in test [1] came out at 270 nM; in test [2] it was 2320 nM. In turn, `NCCC[C@H](NC(=O)[C@H](Cc1ccc(F)c(F)c1)NC(=O)Nc1ccc2c(CN3CCCC3)cn(Cc3c(Cl)cccc3Cl)c2c1)C(=O)NCc1ccccc1` [(S)-5-Amino-2-[(S)-2-{3-[1-(2,6-dichloro-benzyl)-3-pyrrolidin-1-ylmethyl-1H-indol-6-yl]-ureido}-3-(3,4-difluoro-phenyl)-propionylamino]-pentanoic acid benzylamide] returned an IC50 in test [1] of 100 nM. For the molecule `CCN(CC)Cc1cn(Cc2ccc(F)cc2)c2cc(NC(=O)N[C@@H](Cc3ccc(OC)cc3)C(=O)N[C@@H](CCCNC(=N)N)C(=O)NCC3CCCCC3)ccc12` [(S)-2-[(S)-2-{3-[3-Diethylaminomethyl-1-(4-fluoro-benzyl)-1H-indol-6-yl]-ureido}-3-(4-methoxy-phenyl)-propionylamino]-5-guanidino-pentanoic acid cyclohexylmethyl-amide], the results for the IC50 in test [1] and in test [2] were 900 nM and 11100 nM, respectively. The like results for `COc1ccc(C[C@H](NC(=O)Nc2ccc3c(CN4CCCCC4)cn(Cc4ccccc4C)c3c2)C(=O)N[C@@H](CCCNC(=N)N)C(=O)NCCCc2ccccc2)cc1` [(S)-5-Guanidino-2-((S)-3-(4-methoxy-phenyl)-2-{3-[1-(2-methyl-benzyl)-3-piperidin-1-ylmethyl-1H-indol-6-yl]-ureido}-propionylamino)-pentanoic acid (3-phenyl-propyl)-amide] were, in that order, 310 nM and 4800 nM.
